# From ChEMBL document CHEMBL1125989, “Preparation and evaluation of optically active 4,4-difluorothreonine as a potent novel antitumor material” (Bioorg Med Chem Lett, 1991)
# How the values were obtained:
# [1] = tested on: Mus musculus; experiment: Tested for body weight of CDF1 mice bearing P388 leukemia at dose of 250 mg/kg/day on day 1; assay type: functional
# [2] = tested on: L1210; experiment: Tested for the effect of stereochemistry on the growth of L1210 mouse leukemia cell line in vitro; assay type: functional, cell-based
# [3] = tested on: Mus musculus; experiment: Tested for body weight of CDF1 mice bearing P388 leukemia at dose of 100 mg/kg/day on day 5; assay type: functional
# [4] = tested on: Mus musculus; experiment: Tested for mean survival time of tested group to that of mean survival time of control group of mice bearing P388 leukemia at dose of 100 mg/kg/day; assay type: functional
# [5] = tested on: Mus musculus; experiment: Tested for body weight of CDF1 mice bearing P388 leukemia at dose of 20 mg/kg/day on day 1; assay type: functional
# [6] = tested on: Mus musculus; experiment: Tested for body weight of CDF1 mice bearing P388 leukemia at dose of 250 mg/kg/day on day 5; assay type: functional
# [7] = tested on: Mus musculus; experiment: Tested for body weight of CDF1 mice bearing P388 leukemia at dose of 100 mg/kg/day on day 1; assay type: functional
# [8] = tested on: Mus musculus; experiment: Tested for mean survival time of tested group to that of mean survival time of control group of mice bearing P388 leukemia at dose of 20 mg/kg/day; assay type: functional
# [9] = tested on: Mus musculus; experiment: Tested for body weight of CDF1 mice bearing P388 leukemia at dose of 20 mg/kg/day on day 5; assay type: functional
# [10] = tested on: Mus musculus; experiment: Tested for mean survival time of tested group to that of mean survival time of control group of mice bearing P388 leukemia at dose of 250 mg/kg/day; assay type: functional
# [11] = tested on: KB; experiment: Concentration at 50 percent inhibition of cell growth against human cancer KB cell line in vitro; assay type: functional, cell-based
# [12] = tested on: PC10; experiment: Concentration at 50 percent inhibition of cell growth against human […] cell line in vitro; assay type: functional, cell-based
# [13] = tested on: CCRF-CEM; experiment: Concentration at 50 percent inhibition of cell growth against human leukemia CCRF CEM cell line in vitro; assay type: functional, cell-based
# [14] = tested on: L1210; experiment: Concentration at 50 percent inhibition of cell growth against mouse leukemia 1210 cell line in vitro; assay type: functional, cell-based
# [15] = tested on: PC10; experiment: Concentration at 50 percent inhibition of cell growth against human cancer PC10 cell line in vitro; assay type: functional, cell-based
structure (smiles),measurement,setting,value
C[C@H](O)[C@H](N)C(=O)O,Body weight,[1],22.7 g
same,IC50,[2],2.8 µg/mL
same,Body weight,[3],21.7 g
same,T/C,[4],122%
same,Body weight,[5],22 g
same,Body weight,[6],22 g
same,Body weight,[7],21.3 g
same,T/C,[8],114%
same,Body weight,[9],22 g
same,T/C,[10],170%
NC(C(=O)O)C(O)C(F)F (racemic),IC50,[2],3.3 µg/mL
same,IC50,[11],2.7 µg/mL
same,IC50,[12],5.1 µg/mL
same,IC50,[13],1.7 µg/mL
same,IC50,[14],1.1 µg/mL
C[C@@H](O)[C@@H](N)C(=O)O [D-allothreonine],IC50,[2],> 100 µg/mL
O=c1[nH]cc(F)c(=O)[nH]1 [FLUOROURACIL],IC50,[11],12.1 µg/mL
same,IC50,[13],0.95 µg/mL
same,IC50,[14],0.36 µg/mL
same,IC50,[15],42 µg/mL
